We go through three compounds from patent publication US20050159345A1 (Boehringer Ingelheim International GmbH, priority 2002, published 2005).

In assay [1] the test system is HCV replicon 1a. The experiment in a line: Cell-based HCV 1a RNA replicon assay. To be noted: Hepatitis C virus, 72 h; Huh-7-derived replicon cells, 3 day incubation, HCV RNA by RT-PCR. As to the method:
(§1) These cells were used to establish a sensitive HCV RNA replication cell-based assay for testing candidate test compounds.
(§2) Huh7 cells that stably maintain a subgenomic HCV replicon were established as previously described (Lohman et al. 1999; WO 02/052015). The cells were seeded into a 96 well cell culture cluster at 1×10^4 cells per well in DMEM complemented with 10% FBS, PenStrep (Life Technologies) and […] Geneticin. Cells were incubated in a 5% CO2 incubator at 37° C. until addition of various concentrations of the test compound.
(§3) The test compound was prepared for use in the assay as follows. The test compound in 100% DMSO was added diluted in assay Medium for a final DMSO concentration of 0.5% and the solution was sonicated for 15 min and filtered through a […] Millipore Filter Unit. Serial dilutions of the test compounds were prepared using Assay Medium (containing 0.5% DMSO).
(§4) Cell culture medium was aspirated from the 96-well plate containing the cells and the appropriate dilution of test compound in assay medium was transferred to independent wells of the cell culture plate which was incubated at 37° with 5% CO2.
(§5) Following a 3 day-incubation period, the cells were washed with PBS and total cellular RNA was extracted with the RNeasy Mini Kit® and Qiashredder® from Qiagen. RNA from each well was eluted in 50 μL of H2O. RNA was quantified by optical density at 260 nm on the Cary 1E® UV-Visible spectrophotometer. The HCV RNA replicon copy number was evaluated by real-time RT-PCR with the Abi Prism® 7700 Sequence Detection System. The TAQMAN E® RT-PCR kit provides a system for the detection and analysis of RNA. Direct detection of the reverse transcription polymerase chain reaction (RT-PCR) product with no downstream processing was accomplished by monitoring the increase in fluorescence of a dye-labeled DNA probe. The nucleotide sequence of both primers and probe was located in the 5′ region of the HCV genome. The replicon copy number was then evaluated using a standard curve made with known amounts of replicon copy (supplemented with 50 ng of wild type Huh-7 RNA) assayed in the same reaction mix. The following thermal cycle parameters were used for the RT-PCR reaction on the ABI Prism® 7700 Sequence Detection System. Conditions were optimized for HCV detection. Quantification is based on the threshold cycle, where the amplification plot crosses a defined fluorescence threshold. Comparison of the threshold cycles provides a highly sensitive measure of relative template concentration in different samples. Monitoring during early cycles, when PCR fidelity is at its highest, provides precise data for accurate quantification. The relative template concentration can be converted to real numbers by using the standard curve of HCV with known number of copy.
(§6) The level of inhibition (% inhibition) of each well containing test compound was calculated with the following equation (CN═HCV Replicon copy number): [formula]
(§7) The calculated % inhibition values were then used to determine EC50, slope factor (n) and maximum inhibition (Imax) by the non-linear regression routine NLIN procedure of SAS using the following equation: [formula]

The subject of assay [2] is HCV replicon 1b. The experiment in a line: Cell-based HCV 1b RNA replicon assay. The conditions noted are these: Hepatitis C virus, 72 h; Huh-7-derived replicon cells, 3 day incubation, HCV RNA by RT-PCR. Here is the method: as §1, §2, §3, §4, §5, §6, §7
In general terms: Replicon systems follow genome replication, usually without infectious particles.

Broadly, the EC50 is the concentration at which the effect is half-maximal. A low value points to greater potency. For the compound `COc1ccc2c(O[C@@H]3C[C@H]4C(=O)N[C@]5(C(=O)NS(=O)(=O)c6ccccc6)CC5/C=C\CCCCC[C@H](NC(=O)OC5CCCC5)C(=O)N4C3)cc(-c3csc(NC(C)C)n3)nc2c1` (stereo partly drawn) [VI], the EC50 came out at 2.2 nM in assay [1] and 3 nM in assay [2].
Taken in the same sequence, the figures for `COc1ccc2c(O[C@@H]3C[C@H]4C(=O)N[C@]5(C(=O)NS(=O)(=O)C6CC6)CC5/C=C\CCCCC[C@H](NC(=O)OC5CCCC5)C(=O)N4C3)cc(-c3csc(NC(C)C)n3)nc2c1` (stereo partly drawn) were 0.7 nM and 1.1 nM.
With `COc1ccc2c(O[C@@H]3C[C@H]4C(=O)N[C@]5(C(=O)NS(C)(=O)=O)CC5/C=C\CCCCC[C@H](NC(=O)OC5CCCC5)C(=O)N4C3)cc(-c3csc(NC(C)C)n3)nc2c1` (stereo partly drawn) [VII], the EC50 was 3.2 nM in assay [1] and 3.3 nM in assay [2].
